Measurements from EP0613481B1, “TRIAMINO PLATINUM COMPLEXES AND A METHOD FOR THE SYNTHESIS THEREOF” (priority 1991, dated 1993).

Columns and labels:
[1] = test system: L 1210 murine leukemia cell line; experiment: 24 hours-thymidine uptake cytotoxicity, continuous exposition to the drugs; format: cell-based; details: for IC50: L1210, Mean ±SD, read-out: IC50 (Concentration producing 50% of inhibition)
P388 leukemic cells = experiment: In vivo compared antitumor activity assay in mice infected with P388 leukemic cells; details: single administration
L 1210/cis-DDP cell line = details: for IC50: read-out: IC50 (Concentration producing 50% of inhibition), L1210/cis-DDP, Mean ±SD
[2] = test system: P388 murine leukemic cells; experiment: In vitro cytotoxic activity; format: cell-based; details: at least comparable with cis-DDP
[3] = test system: K562 human erhytroleukemic cells; experiment: In vitro cytotoxic activity; format: cell-based; details: at least comparable with cis-DDP
Jurkat human cells = experiment: In vitro cytotoxic activity; format: cell-based; details: at least comparable with cis-DDP
[4] = mouse, in vivo, ip
[5] = Acute intraperitoneal toxicity and renal toxicity in mice; details: acute intraperitoneal administration, dissolved into 0.9% aqueous NaCl

Row | Compound | IC50 [1] | ILS (highest increase in life span) (P388 leukemic cells; 8 mg/kg) | percent body weight variation (P388 leukemic cells; decrease, 8 mg/kg (maximum tolerated dose)) | IC50 (L 1210/cis-DDP cell line) | activity relative to cis-DDP (times more active) ([1]; parental L 1210 cell line) | ILS (highest increase in life span) (P388 leukemic cells; 21 mg/kg) | percent body weight variation (P388 leukemic cells; increase, 21 mg/kg) | cytotoxic activity [2] | cytotoxic activity [3] | cytotoxic activity (Jurkat human cells) | activity relative to cis-DDP (times greater, from IC50s) (L 1210/cis-DDP cell line; L 1210/cis-DDP cell line) | kidney damages (plasma BUN increase, examination of renal tubules) [4] | LD50 [5]
1 | N.N.[Cl][Pt][Cl] [cis-DDP, cis-platinum, reference compound] | 840 ± 90 nM | 75% | 10.6% | 9600 ± 2800 nM | – | – | – | – | – | – | – | – | –
2 | cis-diamino-chloro-4-[diethylammoniumethoxycarbonylphenyl]amino-platinum (II)^+ bis-chloride monohydrate [cis-DPR] | 510 ± 80 nM | – | – | 970 ± 170 nM | about 1.6 times | 75% | 4.5% | significant cytotoxyc activity | significant cytotoxyc activity | significant cytotoxyc activity | about 10 times | no evaluable kidney damages | 39.3 mg/kg
